# Laboratory results taken from patent US20060069132A1, “Azolecarboxamide herbicides” (priority 2004, published 2006).
# Where two headings read alike, the source gives them in different places.
# How the values were obtained:
# barnyardgrass = test: Test A pre-/postemergence herbicide test; type: in vivo, Echinochloa crus-galli; conditions: Echinochloa crus-galli, 240 h; for pest or weed control at 500 g/ha: 500 g ai/ha; for pest or weed control at 2000 g/ha: 2000 g ai/ha
# Summary of the method: (§1)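 Sandy loam soil given preemergence directed spray; plants at 2 to 10 cm, one- to two-leaf stage, sprayed to runoff postemergence, compounds in non-phytotoxic solvent with surfactant. Injury rated visually versus untreated controls after about ten greenhouse days, 0 (no effect) to 100 (complete control); dash means not tested.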
# large crabgrass = test: Test A pre-/postemergence herbicide test; type: in vivo, Digitaria sanguinalis; conditions: Digitaria sanguinalis, 240 h; for pest or weed control at 500 g/ha: 500 g ai/ha; for pest or weed control at 2000 g/ha: 2000 g ai/ha
# Summary of the method: as §1
# redroot pigweed = test: Test A pre-/postemergence herbicide test; type: in vivo, Amaranthus retroflexus; conditions: Amaranthus retroflexus, 240 h; for pest or weed control at 500 g/ha: 500 g ai/ha; for pest or weed control at 2000 g/ha: 2000 g ai/ha
# Summary of the method: as §1
# corn = test: Test C pre-/postemergence herbicide test; type: in vivo, Zea mays; conditions: for Corn plant response rating (crop injury, 0 = no effect, 100 = complete kill) at 250 g/ha: 250 g ai/ha; for Corn plant response rating (crop injury, 0 = no effect, 100 = complete kill) at 125 g/ha: 125 g ai/ha
# Summary of the method: (§2)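 Preemergence: seeds planted and treated with compound in non-phytotoxic solvent with surfactant; postemergence: plants at 2 to 18 cm (1- to 4-leaf stage) sprayed likewise. Kept in greenhouse 12 to 14 days, then visually rated against controls, 0 (no effect) to 100 (complete control).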
# giant foxtail = test: Test C pre-/postemergence herbicide test; type: in vivo, Setaria faberi; conditions: for pest or weed control at 250 g/ha: 250 g ai/ha; for pest or weed control at 125 g/ha: 125 g ai/ha
# Summary of the method: as §2
# kochia = test: Test C pre-/postemergence herbicide test; type: in vivo, Kochia scoparia; conditions: for pest or weed control at 125 g/ha: 125 g ai/ha
# Summary of the method: as §2
# lambsquarters = test: Test C pre-/postemergence herbicide test; type: in vivo, Chenopodium album; conditions: for pest or weed control at 125 g/ha: 125 g ai/ha
# Summary of the method: as §2
# common ragweed = test: Test C pre-/postemergence herbicide test; type: in vivo, Ambrosia elatior; conditions: for pest or weed control at 125 g/ha: 125 g ai/ha
# Summary of the method: as §2
# [1] = tested on: common (oilseed) sunflower; test: Test C pre-/postemergence herbicide test; type: in vivo, Helianthus annuus; conditions: Helianthus annuus, pre-emergence, read-out: Plant response rating, Sunflower
# Summary of the method: as §2
# velvetleaf = test: Test C pre-/postemergence herbicide test; type: in vivo, Abutilon theophrasti; conditions: Abutilon theophrasti, read-out: Plant response rating, Velvetleaf; for pest or weed control at 125 g/ha: 125 g ai/ha
# Summary of the method: as §2
# [2] = post-emergence, Postemergence, 0 to 100 scale, 0 no effect, 100 complete control, read-out: Plant response rating, Barnyardgrass
# [3] = post-emergence, Postemergence, 0 to 100 scale, 0 no effect, 100 complete control, read-out: Plant response rating, Crabgrass, Large
# [4] = post-emergence, Postemergence, 0 to 100 scale, 0 no effect, 100 complete control, read-out: Plant response rating, Pigweed
smiles,measurement,setting,value
"CCOC(=O)c1cccc(NC(=O)c2cc(C(C)(C)C)nn2CC)c1 [Compound 80, ethyl 3-[[[3-(1,1-dimethylethyl)-1-ethyl-1H-pyrazol-5-yl]carbonyl]-amino]benzoate]",pest or weed control at 500 g/ha,barnyardgrass; [2],90%
same,pest or weed control at 2000 g/ha,barnyardgrass; [2],90%
same,pest or weed control at 500 g/ha,"barnyardgrass; pre-emergence, Preemergence, visual rating, 0 to 100 scale (0 no effect, 100 complete control), read-out: Barnyardgrass plant response rating",10%
same,pest or weed control at 2000 g/ha,"barnyardgrass; pre-emergence, Preemergence, 0 to 100 scale, 0 no effect, 100 complete control, read-out: Barnyardgrass plant response rating",35%
same,pest or weed control at 500 g/ha,large crabgrass; [3],70%
same,pest or weed control at 2000 g/ha,large crabgrass; [3],90%
same,pest or weed control at 500 g/ha,"large crabgrass; pre-emergence, Preemergence, visual rating, 0 to 100 scale (0 no effect, 100 complete control), read-out: Crabgrass, Large plant response rating",10%
same,pest or weed control at 2000 g/ha,"large crabgrass; pre-emergence, Preemergence, 0 to 100 scale, 0 no effect, 100 complete control, read-out: Crabgrass, Large plant response rating",30%
same,pest or weed control at 500 g/ha,redroot pigweed; [4],100%
same,pest or weed control at 2000 g/ha,redroot pigweed; [4],100%
same,pest or weed control at 500 g/ha,"redroot pigweed; pre-emergence, Preemergence, visual rating, 0 to 100 scale (0 no effect, 100 complete control), read-out: Pigweed plant response rating",70%
same,pest or weed control at 2000 g/ha,"redroot pigweed; pre-emergence, Preemergence, 0 to 100 scale, 0 no effect, 100 complete control, read-out: Pigweed plant response rating",90%
same,"Plant response rating (0 = no effect, 100 = complete control), Corn","corn; 62 g ai/ha, preemergence",0
same,"Corn plant response rating (crop injury, 0 = no effect, 100 = complete kill) at 250 g/ha","corn; Zea mays, post-emergence, 312 h, Postemergence, scale 0 to 100, 0 no effect, 100 complete control",70%
same,"Corn plant response rating (crop injury, 0 = no effect, 100 = complete kill) at 125 g/ha","corn; Zea mays, post-emergence, 312 h, postemergence, scale 0 to 100",70%
same,"Corn plant response rating (crop injury, 0 = no effect, 100 = complete kill) at 62 g/ha","corn; Zea mays, post-emergence, 312 h, postemergence, 62 g ai/ha, scale 0 to 100",70%
same,"Corn plant response rating (crop injury, 0 = no effect, 100 = complete kill) at 31 g/ha","corn; Zea mays, pre-emergence, 312 h, 31 g ai/ha, preemergence, scale 0 to 100",0%
same,"Corn plant response rating (crop injury, 0 = no effect, 100 = complete kill) at 125 g/ha","corn; Zea mays, pre-emergence, 312 h, scale 0 (no effect) to 100 (complete control), visual, 12 to 14 days",10%
same,"Corn plant response rating (crop injury, 0 = no effect, 100 = complete kill) at 250 g/ha","corn; Zea mays, pre-emergence, 312 h, scale 0 to 100 (0 no effect, 100 complete control), visual, 12 to 14 days",20%
same,"Plant response rating (0 = no effect, 100 = complete control), Foxtail, Giant","giant foxtail; 62 g ai/ha, preemergence",10
same,pest or weed control at 250 g/ha,"giant foxtail; Setaria faberi, post-emergence, 312 h, Postemergence, scale 0 to 100, 0 no effect, 100 complete control, read-out: Plant response rating, Foxtail, Giant",80%
same,pest or weed control at 125 g/ha,"giant foxtail; Setaria faberi, post-emergence, 312 h, postemergence, scale 0 to 100, read-out: Plant response rating, Foxtail, Giant",80%
same,pest or weed control at 62 g/ha,"giant foxtail; Setaria faberi, post-emergence, 312 h, postemergence, 62 g ai/ha, scale 0 to 100, read-out: Plant response rating, Foxtail, Giant",70%
same,pest or weed control at 31 g/ha,"giant foxtail; Setaria faberi, pre-emergence, 312 h, 31 g ai/ha, preemergence, scale 0 to 100, read-out: Plant response rating, Foxtail, Giant",10%
same,pest or weed control at 125 g/ha,"giant foxtail; Setaria faberi, pre-emergence, 312 h, scale 0 (no effect) to 100 (complete control), visual, 12 to 14 days, read-out: Plant response rating, Foxtail, Giant",40%
same,pest or weed control at 250 g/ha,"giant foxtail; Setaria faberi, pre-emergence, 312 h, scale 0 to 100 (0 no effect, 100 complete control), visual, 12 to 14 days, read-out: Plant response rating, Foxtail, Giant",50%
same,"Plant response rating (0 = no effect, 100 = complete control), Kochia","kochia; 62 g ai/ha, preemergence",10
same,pest or weed control at 250 g/ha,"kochia; Bassia scoparia, post-emergence, Postemergence, 250 g ai/ha, scale 0 to 100, 0 no effect, 100 complete control, read-out: Plant response rating, Kochia",100%
same,pest or weed control at 125 g/ha,"kochia; Bassia scoparia, post-emergence, postemergence, scale 0 to 100, read-out: Plant response rating, Kochia",100%
same,pest or weed control at 62 g/ha,"kochia; Bassia scoparia, post-emergence, postemergence, 62 g ai/ha, scale 0 to 100, read-out: Plant response rating, Kochia",100%
same,pest or weed control at 31 g/ha,"kochia; Bassia scoparia, pre-emergence, 31 g ai/ha, preemergence, scale 0 to 100, read-out: Plant response rating, Kochia",10%
same,pest or weed control at 125 g/ha,"kochia; Bassia scoparia, pre-emergence, scale 0 (no effect) to 100 (complete control), visual, 12 to 14 days, read-out: Plant response rating, Kochia",10%
same,"Plant response rating (0 = no effect, 100 = complete control), Lambsquarters","lambsquarters; 62 g ai/ha, preemergence",0
same,pest or weed control at 250 g/ha,"lambsquarters; Chenopodium album, post-emergence, Postemergence, 250 g ai/ha, scale 0 to 100, 0 no effect, 100 complete control, read-out: Plant response rating, Lambsquarters",100%
same,pest or weed control at 125 g/ha,"lambsquarters; Chenopodium album, post-emergence, postemergence, scale 0 to 100, read-out: Plant response rating, Lambsquarters",100%
same,pest or weed control at 62 g/ha,"lambsquarters; Chenopodium album, post-emergence, postemergence, 62 g ai/ha, scale 0 to 100, read-out: Plant response rating, Lambsquarters",90%
same,pest or weed control at 31 g/ha,"lambsquarters; Chenopodium album, pre-emergence, 31 g ai/ha, preemergence, scale 0 to 100, read-out: Plant response rating, Lambsquarters",0%
same,pest or weed control at 125 g/ha,"lambsquarters; Chenopodium album, pre-emergence, scale 0 (no effect) to 100 (complete control), visual, 12 to 14 days, read-out: Plant response rating, Lambsquarters",10%
same,"Plant response rating (0 = no effect, 100 = complete control), Ragweed","common ragweed; 62 g ai/ha, preemergence",0
same,pest or weed control at 250 g/ha,"common ragweed; Ambrosia artemisiifolia, post-emergence, Postemergence, 250 g ai/ha, scale 0 to 100, 0 no effect, 100 complete control, read-out: Plant response rating, Ragweed",70%
same,pest or weed control at 125 g/ha,"common ragweed; Ambrosia artemisiifolia, post-emergence, postemergence, scale 0 to 100, read-out: Plant response rating, Ragweed",70%
same,pest or weed control at 62 g/ha,"common ragweed; Ambrosia artemisiifolia, post-emergence, postemergence, 62 g ai/ha, scale 0 to 100, read-out: Plant response rating, Ragweed",70%
same,pest or weed control at 31 g/ha,"common ragweed; Ambrosia artemisiifolia, pre-emergence, 31 g ai/ha, preemergence, scale 0 to 100, read-out: Plant response rating, Ragweed",0%
same,pest or weed control at 125 g/ha,"common ragweed; Ambrosia artemisiifolia, pre-emergence, scale 0 (no effect) to 100 (complete control), visual, 12 to 14 days, read-out: Plant response rating, Ragweed",0%
same,pest or weed control at 31 g/ha,"[1]; 31 g ai/ha, preemergence, scale 0 to 100",0%
same,pest or weed control at 125 g/ha,"[1]; 125 g ai/ha, scale 0 (no effect) to 100 (complete control), visual, 12 to 14 days",0%
same,pest or weed control at 250 g/ha,"velvetleaf; post-emergence, Postemergence, 250 g ai/ha, scale 0 to 100, 0 no effect, 100 complete control",100%
same,pest or weed control at 125 g/ha,"velvetleaf; post-emergence, postemergence, scale 0 to 100",100%
same,pest or weed control at 62 g/ha,"velvetleaf; post-emergence, postemergence, 62 g ai/ha, scale 0 to 100",100%
same,pest or weed control at 31 g/ha,"velvetleaf; pre-emergence, 31 g ai/ha, preemergence, scale 0 to 100",20%
same,pest or weed control at 125 g/ha,"velvetleaf; pre-emergence, scale 0 (no effect) to 100 (complete control), visual, 12 to 14 days",100%
